Molecules are shown by their SMILES. Some results are limits rather than exact numbers.

The text below walks through data of patent US20210260069A1, “IRE1a INHIBITOR IN COMBINATION WITH CANCER [sequence] AGENT FOR CANCER TREATMENT” (Fosun Orinove PharmaTech, Inc., priority 2018, published 2021).

Data set [1] is described as follows: Oral bioavailability test, mouse. Particulars: in vivo, 10 mg/kg dose. As to the method:
(§1) All PK experiments are standard tests that performed in either WuXi PharmaTech or Charels River Laboratory. 4315 and 4485 (Orin 1001) were dosed PO as a suspension in 1% microcellulose (Sigma) and 50% Sucrouse (Sigma).

Data set [2] concerns human glioblastoma U-87 MG tumor cells. The data set can be described thus: U-87 MG glioblastoma xenograft (Example 19). The format is in vivo, female NCr nu/nu mice. On the procedure: Orin 1001 was administered by oral gavage in a xenograft mouse model using female NCr nu/nu mice injected subcutaneously with human glioblastoma U-87 MG tumor cells, a glioblastoma multiforme (GBM) cell line. Animals were assigned to 4 groups (n=6/group); Vehicle control administered by oral gavage for 28 days, Orin 1001 administered via oral gavage at 300 mg/kg/day for 28 consecutive days, paclitaxel administered weekly by iv at 15 mg/kg, or Orin 1001 administered in combination with paclitaxel.
The percent tumor growth delay was calculated using the following equation: TGD (%)=[T-C/C]×100; where T-C is the difference in time to tumor endpoint from Treated (T) and Control (C).
The time to tumor endpoint (TTE) for each animal was further calculated using the following equation: TTE (days)=log 10 (endpoint volume, mm^3)-b/m, where b is the intercept and m is the slope of the line obtained by linear regression of the log-transformed tumor growth data set.

Another data set concerns human liver HUH-7 cells. In words: Subcutaneous HUH-7 liver cancer xenograft model, survival (Example 23). The class given is in vivo, Female BALB/c nude mice. As to the method:
Female BALB/c nude mice were subcutaneously inoculated with human liver HUH-7 cells (from JCRB) to establish a xenograft model of liver cancer. The scheduled administration cycle was 28 days. Animals were assigned into 4 groups (n=10/group): one vehicle group, two single treatment groups (Orin 1001 administered at 80 mg/kg/day q.d. for 28 days; Sorafenib administered following a dose regimen of 18.25 mg/kg/day q.d. for 5 days, then 25 mg/kg/day q.d. for 3 days, and then 45 mg/kg/day q.d. for 20 days, consecutively) and one combination treatment group (sorafenib administered following a dose regimen of 18.25 mg/kg/day q.d. for 5 days, then 25 mg/kg/day q.d. for 3 days, and then 45 mg/kg/day q.d. for 20 days, consecutively, whilst combined with Orin 1001 administered q.d. at a dose of 80 mg/kg/day for 28 days). All vehicle or administration treatments were given via oral gavage. Sorafenib was formulated with Kolliphor® EL/ethanol (2/1, v/v) and water. Orin 1001 was dissolved with cellulose microcrystalline and sucrose in purified water to form as suspension. The mice were euthanized if a tumor volume achieved over 2000 mm^3. Otherwise the experiment ended on the 6th day after the last administration.

Data set [3] is described as follows: Oral bioavailability test, dog. As to conditions: in vivo, 4 mg/kg dose. On the procedure: as §1
A further data set concerns RPMI 8226 tumor cells. The data set can be described thus: Intratumoral XBP-1 spliced effect in Velcade treated RPMI xenografts. Particulars: Orin 1001 30 mg/kg PO on Day 27 in Velcade treated mice, tumor taken four hours later. The format is in vivo, Nude mice. As to the method:
The mice were treated again on the 24th day with Velcade®. On Day 27, the mice were treated with Orin 1001 at 30 mg/kg PO, four hours later the mice were sacrificed as in Example 25, and tumor tissues were isolated. In a similar way as described for the liver PD test in Example 25, RNA extraction and RT-PCR analysis gave the results as shown FIG. 13.
BALB/c mice were injected intraperitoneally with 100 microliters at an equivalent dose of 1 mg/kg tunicamycin solution. Two hours after tunicamycin injection, mice were dosed with compound of interest either PO or IV. Following 2 hours for PO delivery of compound, mice were euthanized according to IACUC protocols using CO2 from a […] source. A 1 cm^3 fragment of the liver for homogenization and extraction of the RNA were collected for further analysis. Total RNA is harvested from cells or tissue using TRIzol according to the manufacturer's procedures. After ethanol precipitation and resuspension of the RNA, RiboGreen (Invitrogen) is used to quantify the yield and normalize the RNA concentration in the source tube containing isolated RNA. RT-PCR is performed by Oligo(dT) priming, and SuperScript II (Invitrogen) transcription using the Amplitaq Gold Kit (Applied Biosystems) according to the manufacturer's protocols. […]

Data set [4] has as its system human breast adenocarcinoma MDA-MB231 tumor cells. The format is in vivo. On the procedure:
Orin 1001 was administered by oral gavage in combination with paclitaxel in a xenograft mouse model using female NCr nu/nu mice (n=10 in each group) injected subcutaneously with human breast adenocarcinoma MDA-MB231 tumor cells. To evaluate the effect of Orin 1001 in combination with paclitaxel, Orin 1001 was administered via oral gavage at 75, 150 or 300 mg/kg/day in combination with paclitaxel at 10 mg/kg iv, weekly (n=10/group) for up to 60 days.

In another data set the target is T1, IRE1α (Mus musculus, UniProt Q9EQY0).
T1 construct: from tissue; host or cells: liver of BALB/c mice (in vivo)
T1 sequence (Q9EQY0 21-977): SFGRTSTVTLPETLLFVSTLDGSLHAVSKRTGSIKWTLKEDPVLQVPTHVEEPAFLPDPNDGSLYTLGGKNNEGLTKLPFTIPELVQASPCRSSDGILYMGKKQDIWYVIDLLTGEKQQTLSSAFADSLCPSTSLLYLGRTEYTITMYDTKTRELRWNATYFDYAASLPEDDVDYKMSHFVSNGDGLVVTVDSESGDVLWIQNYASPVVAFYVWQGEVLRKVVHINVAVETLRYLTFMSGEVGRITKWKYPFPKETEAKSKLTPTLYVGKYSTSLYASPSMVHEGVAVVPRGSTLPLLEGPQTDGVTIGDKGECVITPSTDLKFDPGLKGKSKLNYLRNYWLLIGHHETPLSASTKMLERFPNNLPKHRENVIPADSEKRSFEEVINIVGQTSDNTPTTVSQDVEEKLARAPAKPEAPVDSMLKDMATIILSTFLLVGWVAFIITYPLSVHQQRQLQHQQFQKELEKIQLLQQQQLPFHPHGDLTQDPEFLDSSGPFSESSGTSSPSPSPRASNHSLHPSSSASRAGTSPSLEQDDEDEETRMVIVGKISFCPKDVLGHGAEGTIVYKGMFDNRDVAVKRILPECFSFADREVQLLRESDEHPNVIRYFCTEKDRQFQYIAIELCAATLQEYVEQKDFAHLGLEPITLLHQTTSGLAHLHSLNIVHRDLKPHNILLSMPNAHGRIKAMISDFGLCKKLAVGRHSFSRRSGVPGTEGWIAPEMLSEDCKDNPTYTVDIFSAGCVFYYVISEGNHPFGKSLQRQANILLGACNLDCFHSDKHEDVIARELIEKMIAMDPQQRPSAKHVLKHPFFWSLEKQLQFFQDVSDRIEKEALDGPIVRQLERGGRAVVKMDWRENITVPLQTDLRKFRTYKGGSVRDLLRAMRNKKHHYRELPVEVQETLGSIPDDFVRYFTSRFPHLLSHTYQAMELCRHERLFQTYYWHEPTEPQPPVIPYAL
The data set can be described thus: Liver PD screening assay: XBP-1 splicing analysis of liver after tunicamycin (Example 25). Particulars: PO, 2 hours after tunicamycin 1 mg/kg ip, liver 2 hours after dosing, FIG. 23, read-out: ED50 (inhibition of XBP-1 splicing in liver). The format is in vivo, BALB/c mice. As to the method: Example 25 was related to comparative PD/PK data of Orin 1001 VS compound 4315, as its structure shown below, which is an earlier lead of this series of compounds. Tunicamycin was used herein to activate IRE1, then Orin 1001 (also called 4485) or 4315 were given to inhibit the activating effect. […] Each gel panel represents one mouse liver sample as in the figure.
BALB/c mice were injected intraperitoneally with 100 microliters at an equivalent dose of 1 mg/kg tunicamycin solution. Two hours after tunicamycin injection, mice were dosed with compound of interest either PO or IV. Following 2 hours for PO delivery of compound, mice were euthanized according to IACUC protocols using CO2 from a […] source. A 1 cm^3 fragment of the liver for homogenization and extraction of the RNA were collected for further analysis. Total RNA is harvested from cells or tissue using TRIzol according to the manufacturer's procedures. After ethanol precipitation and resuspension of the RNA, RiboGreen (Invitrogen) is used to quantify the yield and normalize the RNA concentration in the source tube containing isolated RNA. RT-PCR is performed by Oligo(dT) priming, and SuperScript II (Invitrogen) transcription using the Amplitaq Gold Kit (Applied Biosystems) according to the manufacturer's protocols. Primers for human XBP-1 are 5_-[…]-3_ (forward, Seq ID No. 8) and 5_-[…]-3_ (reverse, Seq ID No. 9), and for mouse are 5_-[…]-3_ (forward, Seq ID No. 10) and 5_-[…]-3 (Seq ID No. 11). All DNA oligos were purchased from IDT DNA Technologies. PCR is run on a Bio-Rad PTC-100 96-well thermocycler with heating at 94° C. for 30 s, annealing at 58° C. for 30 s, and polymerizing at 72° C. for 30 s for 35 cycles. Reactions are run on 4% precast NuSieve gels from Cambrex and visualized by ethidium bromide staining and UV excitation.
as §1

Where [5] appears, read: Orin 1001 300 mg/kg/day oral 28 days, paclitaxel 15 mg/kg iv weekly, endpoint 2000 mm^3 or Day 60.

Regarding `COc1cc2c(C)c(CC(=O)N3CCOCC3)c(=O)oc2c(C=O)c1O` [Orin 1001], the bioavailability – broadly, the share of a dose that reaches the circulation, judged against a reference dose that is usually intravenous – in data set [1] came to 63%. For the same compound, in data set [2] (setting [5]), the “percent tumor growth delay (TGD)” value amounted to 13% and the “time to tumor endpoint (TTE)” value was found to be 29.3 days. Further, in data set [2] (each agent alone), the “tumor delay effect over the control” value is recorded as “not very significant”. In the data set with human liver HUH-7 cells (Orin 1001 80 mg/kg/day q.d. 28 days, sorafenib 18.25/25/45 mg/kg, Kaplan-Meier), the “Median Survival Time (MST)” value amounted to 20 days. In the data set with human liver HUH-7 cells (versus vehicle group (group 1)), the “ILS (%) (increase of life span)” value worked out at 0%. Moreover, the bioavailability in data set [3] came to 68.5%. The “inhibition of activated IRE1 (intratumoral XBP1s)” value in the data set on RPMI 8226 tumor cells is on record as “can inhibit the activity of the activated IRE1”. The “clinical signs of toxicity” value in data set [4] (75, 150 or 300 mg/kg/day oral gavage with paclitaxel 10 mg/kg iv weekly, up to 60 days) is “no clinical signs of toxicity”. In addition, the “tolerability of extended oral dosing” value in data set [4] (up to 60 consecutive days) is listed as “well tolerated”. The ED50 (usually the dose that gives a 50% effect, or the effect in half of the subjects) on IRE1α is less than 2 mg/kg.
